≈ marks a conversion by molar mass, not a printed value. Like-named read-outs stand apart in the source and are kept apart here.
Key:
[1] = system: M. fortuitum; assay: 45 hr MIC against M. fortuitum (NTM); assay type: cell-based, Mycobacterium fortuitum; details: M. fortuitum subsp. Fortuitum da Costa Cruz. ATCC 6841
[2] = system: M. smegmatis; assay: 45 hr MIC against M. smegmatis (NTM), Mueller Hinton broth; assay type: cell-based, Mycobacterium smegmatis
[3] = system: M. scrofulaceum; assay: 45 hr MIC against M. scrofulaceum (NTM); assay type: cell-based, Mycobacterium scrofulaceum; details: M. scrofulaceum Prissick and Masson ATCC 19981
[4] = system: Acinetobacter baumannii; assay: microbe, parasite or virus in culture; assay type: cell-based
[5] = system: Klebsiella pneumoniae strain 1139; assay: Checkerboard assay (FICI) with antibiotics, K. pneumoniae; assay type: cell-based
Method in brief: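 Antibiotics in 2-fold dilutions across one axis against Chp peptide dilutions on the other. FICI = MIC in combination/MIC alone for antibiotic plus the same ratio for peptide; minimum FICI used. Synergy at FICI ≤0.5, strongly additive >0.5 to <1, additive 1-<2, antagonistic ≥2.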

[6] = system: Enterobacter cloacae; assay: microbe, parasite or virus in culture; assay type: cell-based
Method in brief: (§1)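 Peptide MICs were determined by growth inhibition in CAA medium supplemented with human serum.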

[7] = system: Escherichia coli; assay: microbe, parasite or virus in culture; assay type: cell-based
Method in brief: as §1

[8] = system: M. avium; assay: 45 hr MIC against M. avium (NTM); assay type: cell-based, Mycobacterium avium; details: M. avium Chester ATCC 700898
[9] = system: carbapenem-resistant bacterial strains; assay: organism not typed; assay type: cell-based
Description: Determination of Minimal Inhibitory Concentrations (MIC).

[10] = Stability assessment in 100% CAA; assay type: in vitro ADME; parameters: unit not given beside the values
Procedure: Stability was assessed after incubation in 100% human serum at 37° C. after 10 minutes, 1 hour, and 2 hours.
Stability assessment was further conducted in 100% CAA and rabbit serum using the same methodology discussed above.

[11] = system: P. aeruginosa strain CFS-1292; assay: MIC at pH 6, pH 7 and pH 8; assay type: cell-based, Pseudomonas aeruginosa
Procedure: The Chp peptides were further evaluated at varying pH levels. The MIC values were determined at pH 6, pH 7, and pH 8 for 18 different Chp peptides against P. aeruginosa strain CFS-1292. […]

[12] = system: P. aeruginosa strain CFS-1292; assay: MIC in presence and absence of Survanta pulmonary surfactant; assay type: cell-based, Pseudomonas aeruginosa
[13] = system: Mycobacterium tuberculosis strains
Procedure: MIC values for various Chp peptides were determined using the CLSI method for broth microdilution in 96-well microtiter format.
Next, MIC values for various Chp peptides were determined using the CLSI method above for broth microdilution in 96-well microtiter format for two different Mycobacterium tuberculosis strains. The MIC was determined as explained above for the NTM strains.

[14] = checkerboard, in combination with Chp4-M1
[15] = checkerboard, in combination with Chp6-M1
[16] = checkerboard, in combination with Chp10-M1
[17] = checkerboard, in combination with Unp2-M1
[18] = A. baumannii isolates (n per peptide in table)
[19] = E. cloacae isolates (n per peptide in table)
[20] = E. coli isolates (n per peptide in table)

## NC[C@H]1O[C@H](O[C@H]2[C@H](O)[C@@H](O[C@H]3O[C@H](CO)[C@@H](O)[C@H](N)[C@H]3O)[C@H](N)C[C@@H]2N)[C@H](N)C[C@@H]1O [tobramycin, reference compound]
[1]; Mycolicibacterium fortuitum, ATCC6841, 45 h, read-out: 45 hr MIC
  MIC: 4 µg/mL (≈ 8.56 µM)
[2]; Mycolicibacterium smegmatis, MC^2155, 45 h, read-out: 45 hr MIC, M. smegmatis MC^2 155, Run #2
  MIC: 0.125 µg/mL (≈ 0.267 µM)
[3]; Mycobacterium scrofulaceum, ATCC19981, 45 h, read-out: 45 hr MIC
  MIC: 0.25 µg/mL (≈ 0.535 µM)
[4]; Acinetobacter baumannii, ATCCBAA747, A. baumanni (ATCC BAA-747), control agents of Table 8, read-out: MIC (in brackets beside MBEC)
  MIC: < 0.5 µg/mL
[5]; [14]
  Antibiotic FIC: 0.125
  Antibiotic MIC: 0.003906 µg/mL
[5]; [15]
  Antibiotic FIC: 0.125
  Antibiotic MIC: 0.003906 µg/mL
[5]; [16]
  Antibiotic FIC: 0.125
  Antibiotic MIC: 0.003906 µg/mL
[5]; [17]
  Antibiotic FIC: 0.125
  Antibiotic MIC: 0.003906 µg/mL
[5]; combined with Chp2
  Antibiotic FIC: 0.25
  Antibiotic MIC in checkerboard: 0.007812 µg/mL
[5]; combined with Chp2-M1
  Antibiotic FIC: 0.25
  Antibiotic MIC in checkerboard: 0.003906 µg/mL
[6]; Enterobacter cloacae, CCUG63317, E. cloacae (CCUG 63317), control agents of Table 8, read-out: MIC (in brackets beside MBEC)
  MIC: < 0.5 µg/mL
[7]; Escherichia coli, ATCC25922, E. coli (ATCC 25922), control agents of Table 8, read-out: MIC (in brackets beside MBEC)
  MIC: < 0.5 µg/mL
[7]; Escherichia coli, ATCC35329, E. coli (ATCC 35329), control agents of Table 8, read-out: MIC (in brackets beside MBEC)
  MIC: < 0.5 µg/mL
[7]; Escherichia coli, E. coli (EC2), control agents of Table 8, read-out: MIC (in brackets beside MBEC)
  MIC: < 0.5 µg/mL
[8]; Mycobacterium avium, ATCC700898, 45 h, read-out: 45 hr MIC
  MIC: 0.125 µg/mL (≈ 0.267 µM)

## MARRRYRLPRRRSRRLFSRTALRMHPRNRLRRIMRGGIRF [Chp6]
[1]
  45 hr MIC: 4 µg/mL
[9]; carbapenem-resistant isolate PA19
  MIC: 0.5 µg/mL
[9]; carbapenem-resistant isolate PA20
  MIC: 1 µg/mL
[9]; carbapenem-resistant isolate PA21
  MIC: 1 µg/mL
[9]; carbapenem-resistant isolate PA22
  MIC: 1 µg/mL
[9]; carbapenem-resistant isolate PA23
  MIC: 1 µg/mL
[9]; carbapenem-resistant isolate PA24
  MIC: 1 µg/mL
[9]; carbapenem-resistant isolate WLC-452
  MIC: 0.25 µg/mL
[2]; M. smegmatis MC^2 155, Run #1
  45 hr MIC: 4 µg/mL
[2]; M. smegmatis MC^2 155, Run #2
  45 hr MIC: 4 µg/mL
[3]
  45 hr MIC: 2 µg/mL
[10]
  MIC (100% CAA): 0.25
[4]; [18]
  MIC50: 0.25 µg/mL
  MIC100: 0.5 µg/mL
  MIC Range: 0.125 to 1 µg/mL
[4]; Acinetobacter baumannii (clinical isolate HSS), RSC 30, CAA without human serum
  MIC: 2 µg/mL
[4]; Acinetobacter baumannii (clinical isolate HSS), RSC 32, CAA without human serum
  MIC: 2 µg/mL
[4]; Acinetobacter baumannii ATCC BAA 747, CAA supplemented with human serum
  MIC: 1 µg/mL
[11]; CAA media (pH 7)
  MIC: 1 µg/mL
[11]; pH 6
  MIC: 2 µg/mL
[11]; pH 7
  MIC: 0.25 µg/mL
[11]; pH 8
  MIC: 1 µg/mL
[12]; CAA media + 0.19 mg/mL Survanta
  MIC: 0.5 µg/mL
[12]; CAA media + […] Survanta
  MIC: 0.5 µg/mL
[12]; CAA media alone
  MIC: 0.5 µg/mL
[13]; Mycobacterium tuberculosis (Zopf) Lehmann and Neumann ATCC 25177
  MIC: 32 µg/mL
[13]; Mycobacterium tuberculosis (Zopf) Lehmann and Neumann ATCC 35817
  MIC: 4 µg/mL
[6]; [19]
  MIC50: 0.5 µg/mL
  MIC100: 1 µg/mL
  MIC Range: 0.25 to 2 µg/mL
[6]; Enterobacter cloacae (ATCC 13047, MIC control strain), RSC 1240, CAA without human serum
  MIC: 4 µg/mL
[6]; Enterobacter cloacae ATCC 13047, CAA supplemented with human serum
  MIC: 2 µg/mL
[7]; E. coli (ATCC 25922, MIC control strain), RSC 813, CAA without human serum
  MIC: 2 µg/mL
[7]; E. coli (HM346, colon, Crohn's disease), RSC 1212, CAA without human serum
  MIC: 2 µg/mL
[7]; [20]
  MIC50: 0.5 µg/mL
  MIC100: 1 µg/mL
  MIC Range: 0.25 to 2 µg/mL
[7]; Escherichia coli ATCC 25922, CAA supplemented with human serum
  MIC: 1 µg/mL
[8]
  45 hr MIC: 1 µg/mL

Reference: patent publication US20220401514A1, “ANTIMICROBIAL, BACTERIOPHAGE-DERIVED POLYPEPTIDES AND THEIR USE AGAINST GRAM-NEGATIVE AND ACID-FAST BACTERIA” (CONTRAFECT CORPORATION, priority 2019, published 2022)
